Drawing on ChEMBL document CHEMBL1201862, “PubChem BioAssay data set” (2004), this text covers EC50, IC50 and CC50 for six molecules.

Active and inactive are the calls of the source.

In general, EC50 refers to the midpoint of the concentration-response curve. Usually IC50 stands for the concentration that inhibits the measured activity by half. One may read the CC50 as the concentration giving 50% cytotoxicity.

In test [1] the target is T1, Lysosomal acid glucosylceramidase (Homo sapiens, UniProt P04062).
T1 sequence (P04062 whole entry): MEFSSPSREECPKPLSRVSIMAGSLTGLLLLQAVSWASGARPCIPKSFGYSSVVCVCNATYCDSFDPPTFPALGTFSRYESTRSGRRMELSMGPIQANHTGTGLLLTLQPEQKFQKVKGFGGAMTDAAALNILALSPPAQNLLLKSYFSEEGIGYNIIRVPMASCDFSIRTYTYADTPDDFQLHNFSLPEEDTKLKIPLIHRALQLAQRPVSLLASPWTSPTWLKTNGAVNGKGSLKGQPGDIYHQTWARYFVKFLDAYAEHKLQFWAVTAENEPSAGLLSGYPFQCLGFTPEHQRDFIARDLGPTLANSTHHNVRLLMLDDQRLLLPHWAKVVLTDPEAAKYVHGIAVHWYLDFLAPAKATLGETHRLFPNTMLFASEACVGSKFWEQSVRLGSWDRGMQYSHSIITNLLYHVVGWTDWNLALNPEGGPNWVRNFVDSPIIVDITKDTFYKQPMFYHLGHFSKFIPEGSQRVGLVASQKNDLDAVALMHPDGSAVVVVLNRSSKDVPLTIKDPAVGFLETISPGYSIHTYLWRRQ
Kind of test: Dose response cell-based high throughput screening assay to identify enhancers of beta-glucosidase activity. [Related pubchem assays: 784 ]. Format: functional.

The test system of test [2] is Streptococcus sp. 'group A'. The experiment in a line: Streptococcus pyogenes SK(-)GAS viability under kanamycin – luminescence, BacTiterGlo, confirmation, counter-screen for streptokinase expression inhibitor project, dose response (AID 1900). The class given is functional, organism-based.
Test [3] relates to Streptococcus. The experiment in a line: GAS UMAA2166 growth inhibition – luminescence, BacTiterGlo, counter-screen for streptokinase expression inhibitor project, dose response (AID 1915).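 Further: potency for reduction of bacterial viability or growth.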 Format: functional, organism-based. (In general: Counterscreens check selectivity or assay interference.)
For test [4], the target named is T2, Short transient receptor potential channel 4 (Mus musculus, UniProt Q9QUQ5).
T2 sequence (Q9QUQ5 whole entry): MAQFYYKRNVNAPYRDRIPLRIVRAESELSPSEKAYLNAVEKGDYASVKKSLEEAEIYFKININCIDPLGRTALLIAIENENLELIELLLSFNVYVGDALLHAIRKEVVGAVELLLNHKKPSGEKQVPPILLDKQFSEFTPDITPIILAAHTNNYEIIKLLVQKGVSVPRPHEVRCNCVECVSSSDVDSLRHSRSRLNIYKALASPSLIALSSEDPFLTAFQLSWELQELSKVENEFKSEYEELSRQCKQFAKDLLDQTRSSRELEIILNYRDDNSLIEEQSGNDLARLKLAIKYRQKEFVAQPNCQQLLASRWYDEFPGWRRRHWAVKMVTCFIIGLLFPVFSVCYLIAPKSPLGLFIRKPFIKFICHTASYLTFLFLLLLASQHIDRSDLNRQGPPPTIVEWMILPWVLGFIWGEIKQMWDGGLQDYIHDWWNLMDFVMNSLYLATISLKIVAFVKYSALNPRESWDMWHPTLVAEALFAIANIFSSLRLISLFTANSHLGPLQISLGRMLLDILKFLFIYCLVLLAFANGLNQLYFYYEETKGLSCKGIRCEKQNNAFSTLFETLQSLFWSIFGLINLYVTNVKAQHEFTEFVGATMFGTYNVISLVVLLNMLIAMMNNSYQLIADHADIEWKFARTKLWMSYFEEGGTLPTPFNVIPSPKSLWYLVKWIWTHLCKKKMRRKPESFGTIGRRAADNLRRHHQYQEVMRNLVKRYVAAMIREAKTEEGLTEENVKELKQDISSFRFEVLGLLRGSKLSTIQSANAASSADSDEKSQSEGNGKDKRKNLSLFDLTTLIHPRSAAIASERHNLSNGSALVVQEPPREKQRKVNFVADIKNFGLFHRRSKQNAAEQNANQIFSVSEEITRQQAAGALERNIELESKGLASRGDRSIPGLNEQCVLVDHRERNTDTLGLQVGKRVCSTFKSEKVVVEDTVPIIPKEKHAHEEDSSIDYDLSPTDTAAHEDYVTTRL
Kind of test: calcium entry via TRPC4 opening agents – cell-based, HEK293 TRPC4/mu-opioid, Fluo-4 calcium, dose response (AID 434937). The class given is functional.

Test [5] deals with Vero. The experiment in a line: cells. Format: functional, cell-based. The note with it: Chlorocebus sabaeus.
The test system of test [6] is Vero. Kind of test: cells. The settings on record: Chlorocebus sabaeus. Format: functional.

As to `CCn1c(CCNC(=O)c2ccc(Cl)cc2)nnc1SCC(=O)NC1CCCC1`, the EC50 in test [1] is listed as > 50 µM (not active). For the molecule `Cc1ccc2c(c1)[C@H]1OCC[C@H]1[C@@H](c1ccncc1)N2`, the EC50 in test [1] is reported as > 10 µM (not active). Consider `CCN1CCN(c2nc(-c3cccnc3)nc3ccccc23)CC1`, for which the EC50 in test [1] is > 50 µM (not active).

Consider `Cc1onc(-c2ccccc2)c1C(=O)NNC(=S)NC(=O)c1ccc(Cl)cc1Cl`, for which the values for the concentration for a half-maximal effect (EC50) in test [2], in test [3] and in test [4] were 0.441 µM (active), 1.8 µM (active) and 1.88 µM (active), respectively. Moreover, the IC50 in test [5] is 22.7 µM (active). The CC50 in test [6] is > 25 µM (active). Regarding `CCOC(=O)C1(c2ccccc2)CCN(CCC(=O)Nc2ccccc2OC)CC1`, the concentration giving a half-maximal response (EC50) in test [4] was 1.88 µM (active). The same measure, in the same setting: the figure for `COc1ccc2c(c1O)[C@]13CCN(C)[C@H](C2)[C@@H]1CCC(=O)C3` is 0.0427 µM (active).
